How the values were obtained:
Format in all cases: in vivo
rice (japonica rice) = assay: transplanted rice safety evaluation; conditions: 125 g/ha ai; treated 5 days after transplantation; 21 days after treatment
Protocol: The activity level standard of harmful plant destruction (i.e. growth control rate) is as follows: In addition, the rice field soil that loaded into the 1/1,000,000 ha pot was leveled to keep water storage at 3-4 cm depth. The 3 leaf stage rice (japonica rice) was transplanted at 3 cm of transplanting depth the next day. The compound of the present invention was treated by the same way after 5 days of transplantation. The fertility condition of echinochloa, scirpus juncoides, bidens tripartite and sagittaria trifolia 14 days after the treatment of the compound of the invention and the fertility condition of rice 21 days after the treatment of the compound of the invention respectively with the naked eye.

foxtail = assay: weed control effect in post-emergence stage (Table 1); design: key: Level 10: completely dead; Level 9: above 95% growth control rate; Level 8: above 90% growth control rate; Level 7: above 80% growth control rate; Level 6: above 70% growth control rate; Level 5: above 60% growth control rate; Level 4: above 50% growth control rate; Level 3: above 20% growth control rate; Level 2: 5%-20% growth control rate; Level 1: below 5% growth control rate; conditions: post-emergence spray at 4-5 leaf stage, 250 g/ha active ingredient with 450 kg/ha water, rated after 3 weeks in greenhouse
Summary of the method: (§1)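 Weed and crop seeds sown in soil-filled pots under 0.5-2 cm soil, greenhouse-grown, then sprayed at 4-5 leaf stage (2-3 weeks after sowing) with compound in acetone/Tween 80/water. Fresh weight growth control rate assessed after 3 weeks in greenhouse.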

rorippa indica = assay: as above; design: key: Level 10: completely dead; Level 9: above 95% growth control rate; Level 8: above 90% growth control rate; Level 7: above 80% growth control rate; Level 6: above 70% growth control rate; Level 5: above 60% growth control rate; Level 4: above 50% growth control rate; Level 3: above 20% growth control rate; Level 2: 5%-20% growth control rate; Level 1: below 5% growth control rate; conditions: post-emergence spray at 4-5 leaf stage, 250 g/ha active ingredient with 450 kg/ha water, rated after 3 weeks in greenhouse
Summary of the method: as §1

crab grass = assay: as above; design: key: Level 10: completely dead; Level 9: above 95% growth control rate; Level 8: above 90% growth control rate; Level 7: above 80% growth control rate; Level 6: above 70% growth control rate; Level 5: above 60% growth control rate; Level 4: above 50% growth control rate; Level 3: above 20% growth control rate; Level 2: 5%-20% growth control rate; Level 1: below 5% growth control rate; conditions: post-emergence spray at 4-5 leaf stage, 250 g/ha active ingredient with 450 kg/ha water, rated after 3 weeks in greenhouse
Summary of the method: as §1

echinochloa [1] = assay: as above; design: key: Level 10: completely dead; Level 9: above 95% growth control rate; Level 8: above 90% growth control rate; Level 7: above 80% growth control rate; Level 6: above 70% growth control rate; Level 5: above 60% growth control rate; Level 4: above 50% growth control rate; Level 3: above 20% growth control rate; Level 2: 5%-20% growth control rate; Level 1: below 5% growth control rate; conditions: post-emergence spray at 4-5 leaf stage, 250 g/ha active ingredient with 450 kg/ha water, rated after 3 weeks in greenhouse
Summary of the method: as §1

bidens bipinnata = assay: as above; design: key: Level 10: completely dead; Level 9: above 95% growth control rate; Level 8: above 90% growth control rate; Level 7: above 80% growth control rate; Level 6: above 70% growth control rate; Level 5: above 60% growth control rate; Level 4: above 50% growth control rate; Level 3: above 20% growth control rate; Level 2: 5%-20% growth control rate; Level 1: below 5% growth control rate; conditions: post-emergence spray at 4-5 leaf stage, 250 g/ha active ingredient with 450 kg/ha water, rated after 3 weeks in greenhouse
Summary of the method: as §1

Indian mallow = assay: as above; design: key: Level 10: completely dead; Level 9: above 95% growth control rate; Level 8: above 90% growth control rate; Level 7: above 80% growth control rate; Level 6: above 70% growth control rate; Level 5: above 60% growth control rate; Level 4: above 50% growth control rate; Level 3: above 20% growth control rate; Level 2: 5%-20% growth control rate; Level 1: below 5% growth control rate; conditions: post-emergence spray at 4-5 leaf stage, 250 g/ha active ingredient with 450 kg/ha water, rated after 3 weeks in greenhouse
Summary of the method: as §1

wheat = assay: post-emergence stage experiment, crop (Table 1); conditions: post-emergence spray at 4-5 leaf stage, 250 g/ha active ingredient with 450 kg/ha water, rated after 3 weeks in greenhouse
Summary of the method: as §1

corn = assay: post-emergence stage experiment, crop (Table 1); conditions: post-emergence spray at 4-5 leaf stage, 250 g/ha active ingredient with 450 kg/ha water, rated after 3 weeks in greenhouse
Summary of the method: as §1

rice = assay: post-emergence stage experiment, crop (Table 1); conditions: post-emergence spray at 4-5 leaf stage, 250 g/ha active ingredient with 450 kg/ha water, rated after 3 weeks in greenhouse
Summary of the method: as §1

echinochloa [2] = assay: weed control effect evaluation in rice field; design: key: Level 10: completely dead; Level 9: above 95% growth control rate; Level 8: above 90% growth control rate; Level 7: above 80% growth control rate; Level 6: above 70% growth control rate; Level 5: above 60% growth control rate; Level 4: above 50% growth control rate; Level 3: above 20% growth control rate; Level 2: 5%-20% growth control rate; Level 1: below 5% growth control rate; conditions: 125 g/ha ai; rice field pot; 14 days after treatment; resistant to pyrazosulfuron-ethyl
From the text: (§2) The activity level standard of harmful plant destruction (i.e. growth control rate) is as follows: Rice field soil was loaded into a 1/1,000,000 ha pot. The seeds of echinochloa, scirpus juncoides, bidens tripartite and sagittaria trifolia were sowed and gently covered with soil, then left to stand still in greenhouse in the state of 0.5-1 cm of water storage. The tuber of sagittaria trifolia was planted in the next day or 2 days later. It was kept at 3-4 cm of water storage thereafter. The weeds were treated by dripping the WP or SC water diluents prepared according to the common preparation method of the compounds of the present invention with pipette homogeneously to achieve specified effective amount when echinochloa, scirpus juncoides and bidens tripartite reached 0.5 leaf stage and sagittaria trifolia reached the time point of primary leaf stage. The fertility condition of echinochloa, scirpus juncoides, bidens tripartite and sagittaria trifolia 14 days after the treatment of the compound of the invention and the fertility condition of rice 21 days after the treatment of the compound of the invention respectively with the naked eye.

sagittaria trifolia = assay: weed control effect evaluation in rice field; design: key: Level 10: completely dead; Level 9: above 95% growth control rate; Level 8: above 90% growth control rate; Level 7: above 80% growth control rate; Level 6: above 70% growth control rate; Level 5: above 60% growth control rate; Level 4: above 50% growth control rate; Level 3: above 20% growth control rate; Level 2: 5%-20% growth control rate; Level 1: below 5% growth control rate; conditions: 125 g/ha ai; rice field pot; 14 days after treatment; resistant to pyrazosulfuron-ethyl
From the text: as §2

scirpus juncoides = assay: weed control effect evaluation in rice field; design: key: Level 10: completely dead; Level 9: above 95% growth control rate; Level 8: above 90% growth control rate; Level 7: above 80% growth control rate; Level 6: above 70% growth control rate; Level 5: above 60% growth control rate; Level 4: above 50% growth control rate; Level 3: above 20% growth control rate; Level 2: 5%-20% growth control rate; Level 1: below 5% growth control rate; conditions: 125 g/ha ai; rice field pot; 14 days after treatment; resistant to pyrazosulfuron-ethyl
From the text: as §2

bidens tripartite = assay: weed control effect evaluation in rice field; design: key: Level 10: completely dead; Level 9: above 95% growth control rate; Level 8: above 90% growth control rate; Level 7: above 80% growth control rate; Level 6: above 70% growth control rate; Level 5: above 60% growth control rate; Level 4: above 50% growth control rate; Level 3: above 20% growth control rate; Level 2: 5%-20% growth control rate; Level 1: below 5% growth control rate; conditions: 125 g/ha ai; rice field pot; 14 days after treatment; resistant to pyrazosulfuron-ethyl
From the text: as §2

| SMILES | Rice (activity level, transplanted rice safety) (rice (japonica rice)) | weed control effect, Green foxtail (level) (foxtail) | weed control effect, Rorippa indica (level) (rorippa indica) | weed control effect, Crab grass (level) (crab grass) | weed control effect, Echinochloa (level) (echinochloa [1]) | weed control effect, Bidens bipinnata (level) (bidens bipinnata) | weed control effect, Indian mallow (level) (Indian mallow) | effect on crop, Wheat (level) (wheat) | effect on crop, Corn (level) (corn) | effect on crop, Rice (level) (rice) | Echinochloa weed control effect (activity level) (echinochloa [2]) | Sagittaria trifolia weed control effect (activity level) (sagittaria trifolia) | Scirpus juncoides weed control effect (activity level) (scirpus juncoides) | Bidens tripartite weed control effect (activity level) (bidens tripartite) |
| --- | --- | --- | --- | --- | --- | --- | --- | --- | --- | --- | --- | --- | --- | --- |
| Cn1nc(C2CC2)c(C(=O)c2ccc(C(F)(F)F)c(N3CCCC3=O)c2Cl)c1O [Compound 025] | 0 | 10 | 10 | 6 (Level 6: above 70% growth control rate) | 6 (Level 6: above 70% growth control rate) | 8 (Level 8: above 90% growth control rate) | 10 | 3 (Level 3: above 20% growth control rate) | 4 (Level 4: above 50% growth control rate) | 6 (Level 6: above 70% growth control rate) | 9 (Level 9: above 95% growth control rate) | 10 | 10 | 8 (Level 8: above 90% growth control rate) |
| CCOc1c(C(=O)Oc2c(C(=O)c3ccc(C(F)(F)F)c(-n4cccn4)c3Cl)cnn2C)cnn1C [Compound 065] | 3 (Level 3: above 20% growth control rate) | 10 | 9 (Level 9: above 95% growth control rate) | 8 (Level 8: above 90% growth control rate) | 7 (Level 7: above 80% growth control rate) | 7 (Level 7: above 80% growth control rate) | 9 (Level 9: above 95% growth control rate) | 3 (Level 3: above 20% growth control rate) | 9 (Level 9: above 95% growth control rate) | 3 (Level 3: above 20% growth control rate) | 9 (Level 9: above 95% growth control rate) | 9 (Level 9: above 95% growth control rate) | 9 (Level 9: above 95% growth control rate) | 8 (Level 8: above 90% growth control rate) |
| CCn1nc(C)c(C(=O)c2ccc(C(F)(F)F)c(-n3cccn3)c2Cl)c1O [Compound 128] | 1 (Level 1: below 5% growth control rate) | 10 | 7 (Level 7: above 80% growth control rate) | 1 (Level 1: below 5% growth control rate) | 10 | 6 (Level 6: above 70% growth control rate) | 3 (Level 3: above 20% growth control rate) | 0 | 0 | 5 (Level 5: above 60% growth control rate) | 10 | 8 (Level 8: above 90% growth control rate) | 10 | 6 (Level 6: above 70% growth control rate) |
